Source: ChEMBL document CHEMBL3885881, “DrugMatrix”

Organism: Rattus norvegicus
Assay: DrugMatrix - Regimen: Daily Repeat
Assay type: toxicity, organism-based, Sprague-Dawley
Set-up: regimen Daily Repeat, gender Male, age 6-8 weeks
Conditions: in vivo, po, route oral GAVAGE, […]; for ABSOLUTE BASOPHIL / ABSOLUTE EOSINOPHIL / ABSOLUTE LYMPHOCYTE / ABSOLUTE MONOCYTE / ABSOLUTE SEGMENTED NEUTROPHIL / BASOPHIL / EOSINOPHIL / ERYTHROCYTE COUNT / HEMATOCRIT / HEMOGLOBIN / LEUKOCYTE COUNT / LYMPHOCYTE / MEAN CORPUSCULAR HEMOGLOBIN / MEAN CORPUSCULAR HEMOGLOBIN CONCENTRATION / MEAN CORPUSCULAR VOLUME / MONOCYTE / NEUTROPHIL / NUCLEATED RED BLOOD CELLS / PLATELET COUNT: tissue Blood; for ALANINE AMINOTRANSFERASE / ALBUMIN / ALKALINE PHOSPHATASE / ASPARTATE AMINOTRANSFERASE / BLOOD UREA NITROGEN / CARBON DIOXIDE / CHLORIDE / CHOLESTEROL / CREATINE PHOSPHOKINASE / CREATININE / GLUCOSE / LACTATE DEHYDROGENASE / LIPASE / PHOSPHORUS / POTASSIUM / SODIUM / TOTAL BILIRUBIN / TOTAL PROTEIN / URIC ACID: tissue Plasma
[1] = 0 mg/kg, 72 h, dose level Control, time 3 day
[2] = 0 mg/kg, 120 h, dose level Control, time 5 day
[3] = 2 mg/kg, 72 h, dose level High, time 3 day

## COc1ccc2c(c1)c(CC(=O)OCC(=O)O)c(C)n2C(=O)c1ccc(Cl)cc1 [ACEMETACIN]
[1]
  ABSOLUTE BASOPHIL: 0 CELLS/uL
  ABSOLUTE EOSINOPHIL: 138.5 CELLS/uL
  ABSOLUTE LYMPHOCYTE: 13978.67 CELLS/uL
  ABSOLUTE MONOCYTE: 391 CELLS/uL
  ABSOLUTE SEGMENTED NEUTROPHIL: 1608.5 CELLS/uL
  BASOPHIL: 0%
  EOSINOPHIL: 1%
  ERYTHROCYTE COUNT: 5.8 x10E6/uL
  HEMATOCRIT: 36.22%
  HEMOGLOBIN: 13.65 G/DL
  LEUKOCYTE COUNT: 16.12 x10E3/uL
  LYMPHOCYTE: 86.67%
  MEAN CORPUSCULAR HEMOGLOBIN: 23.58 pg
  MEAN CORPUSCULAR HEMOGLOBIN CONCENTRATION: 37.72 G/DL
  MEAN CORPUSCULAR VOLUME: 62.52 fL
  MONOCYTE: 2.5%
  NEUTROPHIL: 9.83%
  NUCLEATED RED BLOOD CELLS: 0 /100WBC
  PLATELET COUNT: 1214.17 x10E3/uL
  ALANINE AMINOTRANSFERASE: 59.5 u/L
  ALBUMIN: 4.1 G/DL
  ALKALINE PHOSPHATASE: 393.83 u/L
  ASPARTATE AMINOTRANSFERASE: 87.83 u/L
  BLOOD UREA NITROGEN: 16.33 mg/dL
  CARBON DIOXIDE: 28.17 mmol/L
  CHLORIDE: 100.83 MEQ/L
  CHOLESTEROL: 73.33 mg/dL
  CREATINE PHOSPHOKINASE: 398 u/L
  CREATININE: 0.2 mg/dL
  GLUCOSE: 152.67 mg/dL
  LACTATE DEHYDROGENASE: 501.5 u/L
  LIPASE: 9.5 u/L
  PHOSPHORUS: 10.77 mg/dL
  POTASSIUM: 6.44 MEQ/L
  SODIUM: 143.4 MEQ/L
  TOTAL BILIRUBIN: 0.17 mg/dL
  TOTAL PROTEIN: 5.92 G/DL
  URIC ACID: 1.68 mg/dL
[2]
  ABSOLUTE BASOPHIL: 0 CELLS/uL
  ABSOLUTE EOSINOPHIL: 183.33 CELLS/uL
  ABSOLUTE LYMPHOCYTE: 14952.83 CELLS/uL
  ABSOLUTE MONOCYTE: 238.5 CELLS/uL
  ABSOLUTE SEGMENTED NEUTROPHIL: 1642 CELLS/uL
  BASOPHIL: 0%
  EOSINOPHIL: 1%
  ERYTHROCYTE COUNT: 5.89 x10E6/uL
  HEMATOCRIT: 36.13%
  HEMOGLOBIN: 13.37 G/DL
  LEUKOCYTE COUNT: 17.02 x10E3/uL
  LYMPHOCYTE: 87.17%
  MEAN CORPUSCULAR HEMOGLOBIN: 22.73 pg
  MEAN CORPUSCULAR HEMOGLOBIN CONCENTRATION: 37.02 G/DL
  MEAN CORPUSCULAR VOLUME: 61.45 fL
  MONOCYTE: 1.5%
  NEUTROPHIL: 10.33%
  NUCLEATED RED BLOOD CELLS: 0 /100WBC
  PLATELET COUNT: 1183.5 x10E3/uL
  ALANINE AMINOTRANSFERASE: 54.83 u/L
  ALBUMIN: 4.28 G/DL
  ALKALINE PHOSPHATASE: 363.17 u/L
  ASPARTATE AMINOTRANSFERASE: 96.83 u/L
  BLOOD UREA NITROGEN: 15.67 mg/dL
  CARBON DIOXIDE: 26.17 mmol/L
  CHLORIDE: 102.67 MEQ/L
  CHOLESTEROL: 63.67 mg/dL
  CREATINE PHOSPHOKINASE: 594.33 u/L
  CREATININE: 0.2 mg/dL
  GLUCOSE: 182.33 mg/dL
  LACTATE DEHYDROGENASE: 656.5 u/L
  LIPASE: 9.33 u/L
  PHOSPHORUS: 11.7 mg/dL
  POTASSIUM: 5.92 MEQ/L
  SODIUM: 142.62 MEQ/L
  TOTAL BILIRUBIN: 0.13 mg/dL
  TOTAL PROTEIN: 5.85 G/DL
  URIC ACID: 1.8 mg/dL
[3]
  ABSOLUTE BASOPHIL: 0 CELLS/uL
  ABSOLUTE EOSINOPHIL: 380 CELLS/uL
  ABSOLUTE LYMPHOCYTE: 13622 CELLS/uL
  ABSOLUTE MONOCYTE: 500 CELLS/uL
  ABSOLUTE SEGMENTED NEUTROPHIL: 2164.67 CELLS/uL
  BASOPHIL: 0%
  EOSINOPHIL: 2.33%
  ERYTHROCYTE COUNT: 5.07 x10E6/uL
  HEMATOCRIT: 32.77%
  HEMOGLOBIN: 12.63 G/DL
  LEUKOCYTE COUNT: 16.67 x10E3/uL
  LYMPHOCYTE: 81.67%
  MEAN CORPUSCULAR HEMOGLOBIN: 24.97 pg
  MEAN CORPUSCULAR HEMOGLOBIN CONCENTRATION: 38.57 G/DL
  MEAN CORPUSCULAR VOLUME: 64.77 fL
  MONOCYTE: 3%
  NEUTROPHIL: 13%
  NUCLEATED RED BLOOD CELLS: 0.33 /100WBC
  PLATELET COUNT: 1026.67 x10E3/uL
  ALANINE AMINOTRANSFERASE: 66.67 u/L
  ALBUMIN: 4.07 G/DL
  ALKALINE PHOSPHATASE: 414.67 u/L
  ASPARTATE AMINOTRANSFERASE: 86 u/L
  BLOOD UREA NITROGEN: 15 mg/dL
  CARBON DIOXIDE: 28.67 mmol/L
  CHLORIDE: 101.67 MEQ/L
  CHOLESTEROL: 68 mg/dL
  CREATINE PHOSPHOKINASE: 297.67 u/L
  CREATININE: 0.19 mg/dL
  GLUCOSE: 146.67 mg/dL
  LACTATE DEHYDROGENASE: 197.67 u/L
  LIPASE: 9.33 u/L
  PHOSPHORUS: 10.4 mg/dL
  POTASSIUM: 6.36 MEQ/L
  SODIUM: 141.2 MEQ/L
  TOTAL BILIRUBIN: 0.17 mg/dL
  TOTAL PROTEIN: 5.47 G/DL
  URIC ACID: 1.13 mg/dL
